Consider 33 molecules from US8815909B2, “Diaminocyclohexane compounds and uses thereof” (Bristol-Myers Squibb Company, priority 2011, dated 2014).

Structures can show the parent of a compound that is named as a salt.

T1 sequence (P50391 whole entry): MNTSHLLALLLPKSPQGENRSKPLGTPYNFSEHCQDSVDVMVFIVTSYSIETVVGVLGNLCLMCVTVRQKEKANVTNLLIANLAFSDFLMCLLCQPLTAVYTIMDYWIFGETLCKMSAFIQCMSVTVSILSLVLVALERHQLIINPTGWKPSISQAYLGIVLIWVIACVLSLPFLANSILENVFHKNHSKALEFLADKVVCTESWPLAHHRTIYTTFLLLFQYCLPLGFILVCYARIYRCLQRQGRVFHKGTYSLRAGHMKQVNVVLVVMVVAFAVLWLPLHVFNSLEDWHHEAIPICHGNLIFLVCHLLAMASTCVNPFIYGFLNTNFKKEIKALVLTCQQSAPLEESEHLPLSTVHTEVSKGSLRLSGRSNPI

The first assay concerns the target T1, human Y4 receptor (Homo sapiens, UniProt P50391).
T1 construct: expressed in transfected cells
Briefly: NPY4 cAMP HTRF Agonist Assay (inhibitory cAMP assay, Gi activation by Y4 agonism). The note with it: TABLE 2, R2 is Phenyl-CN; read-out: hY4 CAMP EC50. It counts as cell-based. The method in brief: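 CHO cells stably expressing human Y4, 5000/well, exposed to compound with forskolin and IBMX in PBS for 30 min at room temperature. Gi-mediated inhibition of cAMP then measured by HTRF after 1 h with d2-conjugate and anti-cAMP cryptate.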
Regarding `N#Cc1ccc(N2CCC[C@H](N[C@@H]3CCCC[C@H]3Nc3cc(-c4cccc(C(F)(F)F)c4)ccn3)C2)cc1` [Example 249], the EC50 amounted to 537 nM. On to `N#Cc1ccc(N2CCC[C@H](N[C@@H]3CCCC[C@H]3Nc3cc(-c4cccc(N)n4)ccn3)C2)cc1` [Example 237], for which the EC50 worked out at 9 nM.

Consider `N#Cc1ccc(N2CCC[C@H](N[C@@H]3CCCC[C@H]3Nc3cc(-n4cncn4)ccn3)C2)cc1` [Example 208], for which the EC50 turned out to be 231 nM. The same measure, in the same setting: with `C[C@@H](O)c1cccc(-c2ccnc(N[C@@H]3CCCC[C@H]3N[C@H]3CCCN(c4ccc(C#N)cc4)C3)c2)c1` [Example 267] the figure was 3 nM; with `N#Cc1ccc(N2C[C@@H]3C[C@H](N[C@@H]4CCCC[C@H]4Nc4ncc(-c5ccc(C(N)=O)cc5)o4)[C@H]2C3)cc1` [Example 238], 272 nM. Still for that read-out and setting: with `CN(C)c1cccc(-c2ccnc(N[C@@H]3CCCC[C@H]3N[C@H]3CCCN(c4ccc(C#N)cc4)C3)c2)c1` [Example 240] the figure was 72 nM; with `N#Cc1ccc(N2CCC[C@H](N[C@@H]3CCCC[C@H]3Nc3cc(-c4cnc5ccccc5c4)ccn3)C2)cc1` [Example 217], 478 nM.

The assay is the same for the next values; noted with them: TABLE 5, R2 is Pyridinyl-CF3; read-out: hY4 CAMP EC50.
As for `NC(=O)c1cccc(-c2cnc(N[C@@H]3CCCC[C@H]3N[C@H]3C[C@@H]4C[C@H]3N(c3ccnc(C(F)(F)F)c3)C4)o2)c1` [Example 325], the EC50 came out at 567 nM.

Staying with this assay, now noted: TABLE 7, R2 is Pyridinyl-oxadiazole-CH3; read-out: hY4 CAMP EC50.
For `Cc1nc(-c2ccc(N3CCC[C@H](N[C@@H]4CCCC[C@H]4Nc4nccc(-c5ccccc5)n4)C3)cn2)no1` [Example 395], the EC50 was 5 nM.

Still in this assay, the particulars now being: human Y4 receptor, cAMP; read-out: hY4 CAMP EC50.
As for `Cc1nc(-c2ccc(N3CCC[C@H](N[C@@H]4CCCC[C@H]4Nc4cc(-c5ccc(F)cc5F)ccn4)C3)cc2)no1` [Example 343], the EC50 came to 11 nM. Same read-out and setting: the value for `C[C@]1(N[C@@H]2CCCC[C@H]2Nc2ncc(-c3ccc(OC(F)(F)F)cc3)o2)CCCN(c2ccc(O)cc2)C1` [Example 509] was 128 nM. Same read-out and setting: with `CS(=O)(=O)Nc1cccc(-c2ccnc(N[C@@H]3CCCC[C@H]3N[C@H]3CCCN(c4cnc(C(F)(F)F)nc4)C3)c2)c1` [Example 415] the figure was 19 nM; with `Cc1nc(-c2ccc(N3CCC[C@H](N[C@@H]4CCCC[C@H]4Nc4cc(-c5ccc(F)c(F)c5)ccn4)C3)cc2)no1` [Example 342], 8 nM; with `COC(=O)c1cccc(-c2cnc(N[C@@H]3CCCC[C@H]3N[C@H]3CCCN(c4ccc5nc(C)nn5c4)C3)o2)c1` [Example 495], 49 nM. The same measure, in the same setting: the value for `Cc1nc2ccc(N3CCC[C@H](N[C@@H]4CCCC[C@H]4Nc4ncc(-c5cccc(C(N)=O)c5)o4)C3)cn2n1` [Example 489] was 3 nM; that for `Cc1nnc(-c2ccc(N3CCCC(N[C@@H]4CCCC[C@H]4Nc4cc(-c5ccc6c(c5)OCO6)ccn4)C3)cc2)o1` (stereo partly drawn) [Example 368] was 39 nM; that for `COC(=O)Nc1cccc(-c2cnc(N[C@@H]3CCCC[C@H]3N[C@H]3CCCN(c4cnc(C(F)(F)F)cn4)C3)o2)c1` [Example 427] was 1 nM.

As to `Cc1nnc(-c2ccc(N3CCCC(N[C@@H]4CCCC[C@H]4Nc4cc(-c5ccccc5F)ccn4)C3)cc2)o1` (stereo partly drawn) [Example 367], the EC50 was 9 nM.

For `CCc1nc(-c2ccc(N3CCC[C@H](N[C@@H]4CCCC[C@H]4Nc4ncc(-c5cccc(C(N)=O)c5)o4)C3)nc2)no1` [Example 448], the EC50 was 2 nM. Same read-out and setting: with `C[C@]1(N[C@@H]2CCCC[C@H]2Nc2cc(-c3cccc(C(N)=O)c3)ccn2)CCCN(c2ncc(C#N)cn2)C1` [Example 435] the figure was 400 nM.

The same assay, now with this note: human Y4 stable CHO clonal cells, forskolin + IBMX; read-out: NPY4 cAMP HTRF Agonist Assay EC50.
On to `O=[N+]([O-])c1ccc(N2CCC[C@H](N[C@@H]3CCCC[C@H]3Nc3ncc(-c4cccc(F)c4)o3)C2)cc1` [Example 19, (1R,2R)—N1-(5-(3-Fluorophenyl)oxazol-2-yl)-N2-((S)-1-(4-nitrophenyl)piperidin-3-yl)cyclohexane-1,2-diamine], for which the EC50 was determined as 23 nM. On the same count and under the same terms, with `FC(F)(F)c1ccn(-c2ccc(N3CCC[C@H](N[C@@H]4CCCC[C@H]4Nc4nccc(-c5ccccc5)n4)C3)cc2)n1` [Example 69, (1R,2R)—N1-(4-Phenylpyrimidin-2-yl)-N2-((S)-1-(4-(3-(trifluoromethyl)-1H-pyrazol-1-yl)phenyl)piperidin-3-yl)cyclohexane-1,2-diamine bis-trifluoroacetate] the figure was 384 nM. Same read-out and setting: the value for `N#Cc1ccc(N2CCC[C@H](N[C@@H]3CCCC[C@H]3Nc3nnc(-c4ccccc4)o3)C2)cc1` [Example 54, 4-((S)-3-((1R,2R)-2-(5-Phenyl-1,3,4-oxadiazol-2-ylamino)cyclohexylamino)piperidin-1-yl)benzonitrile trifluoroacetate] was 272 nM. On the same count and under the same terms, with `FC(F)(F)c1cnc(N2CCC[C@H](N[C@@H]3CCCC[C@H]3Nc3ncc(-c4ccccc4)o3)C2)nc1` [Example 79, (1R,2R)—N1-(5-Phenyloxazol-2-yl)-N2-((S)-1-(5-(trifluoromethyl)pyrimidin-2-yl)piperidin-3-yl)cyclohexane-1,2-diamine bis-trifluoroacetate] the figure was 83 nM; with `O=C(NC1CC1)c1cccc(-c2cnc(N[C@@H]3CCCC[C@H]3N[C@H]3CCCN(c4ccc(C(F)(F)F)nc4)C3)o2)c1` [Example 99, N-cyclopropyl-(3-(2-((1R,2R)-2((S)-1-(6-trifluoromethyl)pyridin-3yl)piperidin-3-ylamino)cyclohexylamino)oxazol-5-yl)benzamide], 0.8 nM; with `COc1ccc(-c2ccnc(N[C@@H]3CCCC[C@H]3N[C@H]3CCCN(c4ccc([N+](=O)[O-])cc4)C3)n2)cc1` [Example 31, (1R,2R)—N1-(4-(4-Methoxyphenyl)pyrimidin-2-yl)-N2-((S)-1-(4-nitrophenyl)piperidin-3-yl)cyclohexane-1,2-diamine], 241 nM. Take `N#Cc1ccc(N2CCC[C@H](N[C@@H]3CCCC[C@H]3Nc3cc(-c4ccc(O)cc4)ccn3)C2)cc1` [Example 45, 4-((S)-3-((1R,2R)-2-(4-(4-Hydroxyphenyl)pyridin-2-ylamino)cyclohexylamino)piperidin-1-yl)benzonitrile tris-trifluoroacetate]: the EC50 stood at 19 nM.

The same assay, now with this note: second TABLE 1, R2 is Phenyl-CF3; read-out: hY4 CAMP EC50.
For the molecule `O=C(O)c1cccc(-c2cnc(N[C@@H]3CCCC[C@H]3N[C@H]3CCCN(c4ccc(C(F)(F)F)cc4)C3)o2)c1` [Example 116], the EC50 was found to be 886 nM.

For `CC(=O)N(C)c1cccc(-c2ccnc(N[C@@H]3CCCC[C@H]3N[C@H]3CCCN(c4ccc(C(F)(F)F)cc4)C3)c2)c1` [Example 174], the EC50 amounted to 363 nM. On the same count and under the same terms, the value for `CCOC(=O)Nc1cccc(-c2ccnc(N[C@@H]3CCCC[C@H]3N[C@H]3CCCN(c4ccc(C(F)(F)F)cc4)C3)c2)c1` [Example 136] was 2 nM. On the same count and under the same terms, with `N#Cc1ccc(N[C@@H]2CCCC[C@H]2N[C@H]2CCCN(c3ccc(C(F)(F)F)cc3)C2)nc1` [Example 192] the figure was 284 nM. Same read-out and setting: the value for `FC(F)(F)c1ccc(N2CCC[C@H](N[C@@H]3CCCC[C@H]3Nc3ncc(-c4cccc(-c5nnn[nH]5)c4)o3)C2)cc1` [Example 122] was 319 nM. With `COC(=O)N(C)c1cccc(-c2ccnc(N[C@@H]3CCCC[C@H]3N[C@H]3CCCN(c4ccc(C(F)(F)F)cc4)C3)c2)c1` [Example 173], the EC50 is 920 nM.
